# Source: patent publication US8674109B2, “Pesticidal compositions” (Dow AgroSciences, LLC., priority 2009, dated 2014)
# How the values were obtained:
# Format in all cases: in vivo
# [1] = tested on: green peach aphid (Myzus persicae); assay: Insecticidal test for green peach aphid in foliar spray assay on cabbage seedlings
# Method: Insecticidal Test for Green Peach Aphid (Myzus persicae) in Foliar Spray Assay
# Cabbage seedlings grown in 3-inch pots, with 2-3 small (3-5 cm) true leaves, were used as test substrate. The seedlings were infested with 20-50 green peach aphids (wingless adult and nymph) one day prior to chemical application. Four pots with individual seedlings were used for each treatment. Compounds (2 mg) were dissolved in 2 mL of acetone/methanol (1:1) solvent, forming stock solutions of 1000 ppm. The stock solutions were diluted 5× with 0.025% Tween 20 in H2O to obtain the solution at 200 ppm. A hand-held Devilbiss sprayer was used for spraying a solution to both sides of cabbage leaves until runoff. Reference plants (solvent check) were sprayed with the diluent only. Treated plants were held in a holding room for three days at approximately 25° C. and 40% relative humidity (RH) prior to grading. Evaluation was conducted by counting the number of live aphids per plant under a microscope. Insecticidal activity was measured by using Abbott's correction formula are presented in Table 2: Corrected % Control=100*(X−Y)/X
# where • X=No. of live aphids on solvent check plants • Y=No. of live aphids on treated plants
# [2] = tested on: corn earworm (CEW; Helicoverpa zea: Lepidoptera); assay: Insecticidal test for corn earworm, 128-well diet tray assay
# Method: Insecticidal Test for Corn Earworm (Helicoverpa zea)
# (§1) Bioassays on corn earworm (CEW; Helicoverpa zea: Lepidoptera) were conducted using a 128-well diet tray assay. Three to five second instar CEW larvae were placed in each well (3 mL) of the diet tray that had been previously filled with 1 mL of artificial diet to which 50 μg/cm^2 of the test compound (dissolved in 50 μL of 90:10 acetone-water mixture) had been applied (to each of eight wells) and then allowed to dry. Trays were covered with a clear self-adhesive cover, and held at 25° C., 14:10 light-dark for six days. Percent mortality was recorded for the larvae in each well; activity in the eight wells was then averaged.
# [3] = tested on: beet armyworm (BAW; Spodoptera exigua: Lepidoptera); assay: Insecticidal test for beet armyworm, 128-well diet tray assay
# Method: Insecticidal Test for Beet Armyworm (Spodoptera exigua)
# as §1, with “beet armyworm (BAW; Spodoptera exigua:” for “corn earworm (CEW; Helicoverpa zea:”, “BAW” for “CEW”
Compound,% Mortality GPA 200 ppm [1],% Mortality CEW 50 μg/cm^2 [2],% Mortality BAW 50 μg/cm^2 [3]
"CCOC(=O)C#CC(C)(C)OC(=O)Nc1ccc(-c2ncn(-c3ccc(OC(F)(F)F)cc3)n2)cc1 [Compound 23, 4-methyl-4-{4-[1-(4-trifluoromethoxyphenyl)-1H-[1,2,4]triazol-3-yl]-phenylcarbamoyloxy}-pent-2-ynoic acid ethyl ester]",B (Less than 80),B (Less than 50),B (Less than 50)
"CC(OC(=O)Nc1ccc(-c2ncn(-c3ccc(OC(F)(F)F)cc3)n2)cc1)C(F)(F)C(F)(F)F (stereo not drawn) [Compound 24, {4-[1-(4-trifluoromethoxyphenyl)-1H-[1,2,4]triazol-3-yl]phenyl}-carbamic acid 2,2,3,3,3-pentafluoro-1-methyl-propyl ester]",B (Less than 80),A (50-100),A (50-100)
CC(C)(C)OC(=O)Nc1ccc(-c2ncn(-c3ccc(OC(F)(F)F)cc3)n2)cc1 [Compound 25],B (Less than 80),A (50-100),A (50-100)
"CC(OC(=O)Nc1ccc(-c2ncn(-c3ccc(C(F)(F)F)cc3)n2)cc1)c1ccc(C(F)(F)F)cc1 (stereo not drawn) [Compound 27, 1-(4-(trifluoromethyl)phenyl)ethyl 4-(1-(4-(trifluoromethyl)phenyl)-1H-1,2,4-triazol-3-yl)-phenylcarbamate]",B (Less than 80),A (50-100),A (50-100)
CC(OC(=O)Nc1ccc(-c2ncn(-c3ccc(C(F)(F)F)cc3)n2)cc1)c1ccc(C(F)(F)F)nc1 (stereo not drawn) [Compound 28],B (Less than 80),A (50-100),A (50-100)
C#CC(OC(=O)Nc1ccc(-c2ncn(-c3ccc(C(F)(F)F)cc3)n2)cc1)c1ccc(C(F)(F)F)cc1 (stereo not drawn) [Compound 29],B (Less than 80),A (50-100),A (50-100)
CCC(OC(=O)Nc1ccc(-c2ncn(-c3ccc(C(F)(F)F)cc3)n2)cc1)c1ccccc1 (stereo not drawn) [Compound 30],B (Less than 80),A (50-100),A (50-100)
C#CC(OC(=O)Nc1ccc(-c2ncn(-c3ccc(C(F)(F)F)cc3)n2)cc1)c1ccccc1 (stereo not drawn) [Compound 31],B (Less than 80),A (50-100),A (50-100)
CC(C)(CCl)OC(=O)Nc1ccc(-c2ncn(-c3ccc(OC(F)(F)C(F)(F)F)cc3)n2)cc1 [Compound 32],B (Less than 80),A (50-100),A (50-100)
CC(OC(=O)Nc1ccc(-c2ncn(-c3ccc(OC(F)(F)C(F)(F)F)cc3)n2)cc1)c1ccc(C(F)(F)F)nc1 (stereo not drawn) [Compound 33],B (Less than 80),A (50-100),A (50-100)
CCC(OC(=O)Nc1ccc(-c2ncn(-c3ccc(OC(F)(F)C(F)(F)F)cc3)n2)cc1)c1ccccc1 (stereo not drawn) [Compound 34],B (Less than 80),A (50-100),A (50-100)
CC(OC(=O)Nc1ccc(-c2ncn(-c3ccc(OC(F)(F)F)cc3)n2)cc1)c1ccc(I)cc1 (stereo not drawn) [Compound 35],B (Less than 80),A (50-100),A (50-100)
CC(OC(=O)Nc1ccc(-c2ncn(-c3ccc(OC(F)(F)F)cc3)n2)cc1)c1ccc2ccccc2n1 (stereo not drawn) [Compound 36],B (Less than 80),A (50-100),A (50-100)
Cc1cccc(C(C)OC(=O)Nc2ccc(-c3ncn(-c4ccc(OC(F)(F)F)cc4)n3)cc2)n1 (stereo not drawn) [Compound 37],B (Less than 80),A (50-100),A (50-100)
